Measurements published in patent US5145853A, “Bactericidal formulations for use in veterinary medicine” (Bayer Aktiengesellschaft, priority 1985, dated 1992).
Converted amounts (≈) assume the structure as drawn. Where two headings read alike, the source gives them in different places.

Experiments:
mycoplasma gallisepticum = assay: Treatment of mycoplasmoses in poultry; type: in vivo, chicken; settings: for clinical symptoms: animals killed 19 days after infection; for Average weight of the animals after 14: after 14 days; for Average weight of the animals after 19: after 19 days; for Average weight of the animals after 0: day 0 (before treatment)
Method: Groups of 40 chicken which were free from mycoplasma gallisepticum and mycoplasma synoviae were infected at the second day after hatching with a pathogenic wild strain of mycoplasma gallisepticum. The treatment began 24 hours after the infection. One group of 40 chickens was not treated and served as a control. The chickens were treated via their drinking water at 5 successive days following the infection. 19 days after the infection the animals were killed, weighed and examined.

[1] = test system: mycoplasma strain no. 348; assay: Mycoplasmas/Inhibitory concentration test, strain 348; type: cell-based; settings: NO.348, read-out: MIC value, mycoplasma strain no. 348
Method: (§1) The test was carried out on microtiter plates. Series of concentrations of the active compound in 0.01 N soda solution were prepared. The concentrations were from 256 μg/ml to 0.0156 μg/ml.
(§2) 0.5 ml of an active compound solution are placed in each identation in the microtiter plate. To this 0.5 ml of an inoculum of mycoplasmas containing about 10^6 organisms per ml were added.
(§3) The inoculum consisted of a modified mycoplasma broth (PPLO) which contained about 20% of horse serum and in which mycoplasmas had been cultured to a titer of about 10^7 organisms per ml (determined by the MacCrady method).
(§4) Then the microtiter plate was incubated at 37° C. and the growth determined after 48, 72 and 96 hours. That concentration of active compound, which prevented any increase in the moculated mycoplasmas was taken as the MIC-value.

[2] = test system: mycoplasma strain no. 7981; assay: Mycoplasmas/Inhibitory concentration test, strain 7981; type: cell-based
Method: as §1, §2, §3, §4

[3] = test system: mycoplasma strain no. 6442; assay: Mycoplasmas/Inhibitory concentration test, strain 6442; type: cell-based
Method: as §1, §2, §3, §4

[4] = test system: mycoplasma strain no. 4587; assay: Mycoplasmas/Inhibitory concentration test, strain 4587; type: cell-based
Method: as §1, §2, §3, §4

[5] = test system: mycoplasma strain no. 81115; assay: Mycoplasmas/Inhibitory concentration test, strain 81115; type: cell-based
Method: as §1, §2, §3, §4

[6] = test system: mycoplasma strain no. 8008; assay: Mycoplasmas/Inhibitory concentration test, strain 8008; type: cell-based
Method: as §1, §2, §3, §4

[7] = test system: mycoplasmas mycopneumoniae; assay: Treatment of mycoplasmoses in pigs; type: in vivo, piglets; settings: lungs examined on the 34th day
Excerpt: Groups of 5 piglets with an average weight of 25 kg were fed with standard piglet feed from the beginning of the test, to which feed the stated quantities of active compound had been added.
On the 4th day after the beginning of the test, the animals were infected with mycoplasmas mycopneumoniae. As from the 10th day the animals were only given feed not containing any active compound. On the 34th day the animals were killed and the lungs were examined for lesions.

[8] = 500 ppm in drinking water, 5 successive days
[9] = NO.7981, series 256 μg/ml to 0.0156 μg/ml, growth after 48, 72 and 96 hours, 37° C., read-out: MIC value, mycoplasma strain no. 7981
[10] = NO.6442, series 256 μg/ml to 0.0156 μg/ml, growth after 48, 72 and 96 hours, 37° C., read-out: MIC value, mycoplasma strain no. 6442
[11] = NO.4587, series 256 μg/ml to 0.0156 μg/ml, growth after 48, 72 and 96 hours, 37° C., read-out: MIC value, mycoplasma strain no. 4587
[12] = NO.81115, series 256 μg/ml to 0.0156 μg/ml, growth after 48, 72 and 96 hours, 37° C., read-out: MIC value, mycoplasma strain no. 81115
[13] = NO.8008, series 256 μg/ml to 0.0156 μg/ml, growth after 48, 72 and 96 hours, 37° C., read-out: MIC value, mycoplasma strain no. 8008
[14] = 250 ppm in drinking water, 5 successive days

Compound: Tylocin
- clinical symptoms (mycoplasma gallisepticum; [8]): clearly noticeable
- animals dead (clinical symptoms) (mycoplasma gallisepticum; 500 ppm in drinking water, 5 successive days, groups of 40 chickens): no animals dead
- Average weight of the animals after 14 (mycoplasma gallisepticum; [8]): 311.9
- Average weight of the animals after 19 (mycoplasma gallisepticum; [8]): 426.3
- Average weight of the animals after 0 (mycoplasma gallisepticum; 500 ppm in drinking water): 48.4

Compound: CC1CCc2cc(F)cc3c(=O)c(C(=O)O)cn1c23 (stereo not drawn) [flumequine]
- MIC [1]: 256 µg/mL (≈ 980 µM)
- MIC [2, 9]: 256 µg/mL (≈ 980 µM)
- MIC [3, 10]: 256 µg/mL (≈ 980 µM)
- MIC [4, 11]: 256 µg/mL (≈ 980 µM)
- MIC [5, 12]: 256 µg/mL (≈ 980 µM)
- MIC [6, 13]: 256 µg/mL (≈ 980 µM)

Compound: CCN1CCN(c2cc3c(cc2F)c(=O)c(C(=O)O)cn3C2CC2)CC1 [Compound I]
- clinical symptoms (mycoplasma gallisepticum; [14]): none
- Average weight of the animals after 14 (mycoplasma gallisepticum; [14]): 355.7
- Average weight of the animals after 19 (mycoplasma gallisepticum; [14]): 463.8
- Average weight of the animals after 0 (mycoplasma gallisepticum; 250 ppm in drinking water): 47.3
- result (lung lesions) ([7]; 50 mg/kg in the feed): no lesions
- result (lung lesions) ([7]; 100 mg/kg in the feed): no lesions
- MIC [1]: 0.5 µg/mL (≈ 1.39 µM)
- MIC ([2]; NO.7981, read-out: MIC value, mycoplasma strain no. 7981): 0.5 µg/mL (≈ 1.39 µM)
- MIC ([3]; NO.6442, read-out: MIC value, mycoplasma strain no. 6442): 0.15 µg/mL (≈ 0.417 µM)
- MIC ([4]; NO.4587, read-out: MIC value, mycoplasma strain no. 4587): 0.5 µg/mL (≈ 1.39 µM)
- MIC ([5]; NO.81115, read-out: MIC value, mycoplasma strain no. 81115): 0.5 µg/mL (≈ 1.39 µM)
- MIC ([6]; NO.8008, read-out: MIC value, mycoplasma strain no. 8008): 0.25 µg/mL (≈ 0.696 µM)

Compound: C=C[C@]1(C)C[C@@H](OC(=O)CSCCN(CC)CC)[C@]2(C)[C@H](C)CC[C@]3(CCC(=O)[C@H]32)[C@@H](C)[C@@H]1O [Tiamulin]
- result (lung lesions) ([7]; 200 mg/kg in the feed, control 10%): 5%

Compound: CCn1cc(C(=O)O)c(=O)c2ccc(C)nc21 [nalidixic acid]
- MIC [1]: 128 µg/mL (≈ 551 µM)
- MIC [2, 9]: 128 µg/mL (≈ 551 µM)
- MIC [3, 10]: 128 µg/mL (≈ 551 µM)
- MIC [4, 11]: 128 µg/mL (≈ 551 µM)
- MIC [5, 12]: 128 µg/mL (≈ 551 µM)
- MIC [6, 13]: 128 µg/mL (≈ 551 µM)
